In the experiment the test system is C2C12 muscle cells. Put plainly: Analysis of glucose absorption (2-deoxyglucose) in differentiated C2C12 muscle cells. The class given is cell-based. The settings on record: test materials 10 μM, times relative to control group. The protocol: C2C12 muscle cells were cultured in DMEM (Dulbecco's modified Eagle's medium) containing 10% bovine calf serum. When the cell density increased to about 85 to 90%, the culture medium was replaced with 1% bovine calf serum and cell differentiation was induced for 6 days. Completely differentiated cells were cultured for 3 hours with Krebs-Ringer buffer (KRB) containing 5 mM glucose. The test materials were added at a concentration of 10 μM. 30 minutes later, 0.2 μCi 2-deoxyglucose was added. KRB was removed 20 minutes later and the cells were washed for 3 times with cold PBS. The cells were lysed with 0.5N NaOH and counted using a radioactive counter.
Regarding `Cc1ccc(CNc2nc(-c3ccccc3)nc3ccccc23)cc1` [Compound 54, (4-Methylbenzyl)-(2-phenylquinazolino-4-yl)-amine], the Glucose absorption came to 1.2.
Take `c1cncc(-c2nc(NCc3cccc4ccccc34)c3ccccc3n2)c1` [Compound 241, Naphthaleno-1-ylmethyl-(2-pyridino-3-ylquinazolino-4-yl)-amine]: the Glucose absorption was 1.2.
`CCSc1nc(NC(C)c2ccccc2)c2ccccc2n1` (centres unmarked) [Compound 23, (2-Ethylsulfanylquinazolino-4-yl)-(1-phenylethyl)-amine] displayed a Glucose absorption of 0.8.
For `Fc1cccc(CNc2nc(-c3cccnc3)nc3ccccc23)c1` [Compound 243, (3-Fluorobenzyl)-(2-pyridino-3-ylquinazolino-4-yl)-amine], the Glucose absorption came out at 1.4.
Consider `COc1ccc(CNc2nc(C(C)(C)C)nc3ccccc23)cc1` [Compound 189, (2-tert-Butylquinazolino-4-yl)-(4-methoxybenzyl)-amine], for which the Glucose absorption is given as 1.3.
`OCCNc1nc(-c2ccncc2)nc2ccccc12` [Compound 258, 2-(2-Pyridino-4-ylquinazolino-4-ylamino)-ethanol] gave a Glucose absorption of 1.3.
Turning to `COc1ccc(CNc2nc(-c3ccccn3)nc3ccccc23)cc1` [Compound 225, (4-Methoxybenzyl)-(2-pyridino-2-ylquinazolino-4-yl)-amine], the Glucose absorption was 1.3.
As for `CCSc1nc(NCCc2ccccn2)c2ccccc2n1` [Compound 46, (2-Ethylsulfanylquinazolino-4-yl)-(2-pyridino-2-ylethyl)-amine], the Glucose absorption was 1.1.
The figure for `CCSc1nc(NCCCOC(C)C)c2ccccc2n1` [Compound 33, (2-Ethylsulfanylquinazolino-4-yl)-(3-isopropoxypropyl)-amine] is 1.2; for `COc1ccccc1Nc1nc(-c2ccccc2)nc2ccccc12` [Compound 77, (2-Methoxyphenyl)-(2-phenylquinazolino-4-yl)-amine] it is 1.4; for `c1ccc(Cc2nc(NCc3ccc4c(c3)OCO4)c3ccccc3n2)cc1` [Compound 218, Benzo[1,3]dioxol-5-ylmethyl-(2-benzylquinazolino-4-yl)-amine] it is 2.0.
`c1ccc(-c2nc(NCCN3CCNCC3)c3ccccc3n2)cc1` [Compound 160, (2-Phenylquinazolino-4-yl)-(2-piperazino-1-ylethyl)-amine]: the Glucose absorption is listed as 2.5.
As for `COc1cccc(CNc2nc(-c3ccccc3)nc3ccccc23)c1` [Compound 90, (3-Methoxybenzyl)-(2-phenylquinazolino-4-yl)-amine], the Glucose absorption was determined as 1.4.
The molecule `COc1ccc(CCNc2nc(-c3ccccc3)nc3ccccc23)cc1` [Compound 124, [2-(4-Methoxyphenyl)-ethyl]-(2-phenylquinazolino-4-yl)-amine] displayed a Glucose absorption of 1.4.
As for `c1ccc(CCNc2nc(-c3ccccc3)nc3ccccc23)cc1` [Compound 68, Phenethyl-(2-phenylquinazolino-4-yl)-amine], the Glucose absorption amounted to 1.3.
The figure for `Fc1cccc(CNc2nc(-c3ccccc3)nc3ccccc23)c1` [Compound 63, (3-Fluorobenzyl)-(2-phenylquinazolino-4-yl)-amine] is 1.1; for `OCCNc1nc(-c2ccccn2)nc2ccccc12` [Compound 234, 2-(2-Pyridino-2-ylquinazolino-4-ylamino)-ethanol] it is 1.1.
Turning to `CCSc1nc(NCc2ccccc2F)c2ccccc2n1` [Compound 39, (2-Ethylsulfanylquinazolino-4-yl)-(2-fluorobenzyl)-amine], the Glucose absorption is 0.9.
The molecule `CCC(C)Nc1nc(-c2ccccc2)nc2ccccc12` (centres unmarked) [Compound 96, sec-Butyl-(2-phenylquinazolino-4-yl)-amine] came in with a Glucose absorption of 1.3.
As for `CCSc1nc(NCCOCCO)c2ccccc2n1` [Compound 50, 2-[2-(2-Ethylsulfanylquinazolino-4-ylamino)-ethoxy]-ethanol], the Glucose absorption worked out at 1.2.
The molecule `Fc1cccc(CCNc2nc(-c3cccnc3)nc3ccccc23)c1` [Compound 244, [2-(3-Fluorophenyl)-ethyl]-(2-pyridino-3-ylquinazolino-4-yl)-amine] registered a Glucose absorption of 0.4.
Molecule `CCSc1nc(NC2CCCC2)c2ccccc2n1` [Compound 28, Cyclopentyl-(2-ethylsulfanylquinazolino-4-yl)-amine] gave a Glucose absorption of 1.1.
With `COc1ccccc1CNc1nc(-c2ccccc2)nc2ccccc12` [Compound 91, (2-Methoxybenzyl)-(2-phenylquinazolino-4-yl)-amine], the Glucose absorption was found to be 1.2.
With `c1ccc2c(NCc3ccc4c(c3)OCO4)nc(-c3ccncc3)nc2c1` [Compound 254, Benzo[1,3]dioxol-5-ylmethyl-(2-pyridino-4-ylquinazolino-4-yl)-amine], the Glucose absorption worked out at 1.4.
In turn, `CCCCCCCCCCCCCCCCNc1nc(-c2ccccc2)nc2ccccc12` [Compound 99, Hexadecyl-(2-phenylquinazolino-4-yl)-amine] displayed a Glucose absorption of 1.4.
In turn, `c1coc(-c2nc(NCc3ccc4c(c3)OCO4)c3ccccc3n2)c1` [Compound 341, Benzo[1,3]dioxol-5-ylmethyl-(2-furano-2-ylquinazolino-4-yl)-amine] registered a Glucose absorption of 0.8.
As for `FC(F)(F)c1cccc(CNc2nc(-c3ccccc3)nc3ccccc23)c1` [Compound 66, (2-Phenylquinazolino-4-yl)-(3-trifluoromethylbenzyl)-amine], the Glucose absorption is 1.3.
Consider `Fc1cccc(CNc2nc(-c3ccncc3)nc3ccccc23)c1` [Compound 255, (3-Fluorobenzyl)-(2-pyridino-4-ylquinazolino-4-yl)-amine], for which the Glucose absorption is 1.3.
`O=[N+]([O-])c1ccc(CONc2nc(-c3ccccc3)nc3ccccc23)cc1` [Compound 161, O-(4-Nitrobenzyl)-N-(2-phenylquinazolino-4-yl)-hydroxylamine]: the Glucose absorption was 1.1.
`c1cncc(-c2nc(NCc3ccc4c(c3)OCO4)c3ccccc3n2)c1` [Compound 242, Benzo[1,3]dioxol-5-ylmethyl-(2-pyridino-3-ylquinazolino-4-yl)-amine] registered a Glucose absorption of 0.9.
Take `CCCCc1ccc(Nc2nc(-c3ccccc3)nc3ccccc23)cc1` [Compound 79, (4-Butyl-phenyl)-(2-phenylquinazolino-4-yl)-amine]: the Glucose absorption was determined as 1.1.
On to `OCCNc1nc(C2CCCCC2)nc2ccccc12` [Compound 210, 2-(2-Cyclohexylquinazolino-4-ylamino)-ethanol], for which the Glucose absorption is listed as 0.9.
`Fc1cccc(CCNc2nc(-c3ccccn3)nc3ccccc23)c1` [Compound 232, [2-(3-Fluorophenyl)-ethyl]-(2-pyridino-2-ylquinazolino-4-yl)-amine] displayed a Glucose absorption of 1.2.
For the molecule `COc1cc(CNc2nc(-c3ccccc3)nc3ccccc23)cc(OC)c1OC` [Compound 129, (2-Phenylquinazolino-4-yl)-(3,4,5-trimethoxybenzyl)-amine], the Glucose absorption came to 1.3.
The same measure for `CC(C)(C)c1nc(NCc2cccc(C(F)(F)F)c2)c2ccccc2n1` [Compound 190, (2-tert-Butylquinazolino-4-yl)-(3-trifluoromethylbenzyl)-amine]: 1.2; for `CC(C)(C)c1nc(NCc2ccc3c(c2)OCO3)c2ccccc2n1` [Compound 194, Benzo[1,3]dioxol-5-ylmethyl-(2-tert-butylquinazolino-4-yl)-amine]: 1.4; for `c1ccc(-c2nc(NCCC(c3ccccc3)c3ccccc3)c3ccccc3n2)cc1` [Compound 136, (3,3-Diphenylpropyl)-(2-phenylquinazolino-4-yl)-amine]: 1.3.
Molecule `CC(C)(C)c1nc(NCCOCCO)c2ccccc2n1` [Compound 197, 2-[2-(2-tert-Butylquinazolino-4-ylamino)-ethoxy]-ethanol] displayed a Glucose absorption of 1.3.
Turning to `CCSc1nc(NCCO)c2ccccc2n1` [Compound 47, 2-(2-Ethylsulfanylquinazolino-4-ylamino)-ethanol], the Glucose absorption was 0.9.
With `Clc1ccc(-c2nc(NCc3ccc4c(c3)OCO4)c3ccccc3n2)cc1` [Compound 266, Benzo[1,3]dioxol-5-ylmethyl-[2-(4-chlorophenyl)-quinazolino-4-yl]-amine], the Glucose absorption came to 1.1.
Consider `c1ccc(CCCCNc2nc(-c3cccnc3)nc3ccccc23)cc1` [Compound 240, (4-Phenylbutyl)-(2-pyridino-3-ylquinazolino-4-yl)-amine], for which the Glucose absorption is listed as 1.0.
The same measure for `c1ccc(-c2nc(NCc3cccc4ccccc34)c3ccccc3n2)cc1` [Compound 57, Naphthaleno-1-ylmethyl-(2-phenylquinazolino-4-yl)-amine]: 1.0; for `Fc1cccc(CCNc2nc(C3CCCCC3)nc3ccccc23)c1` [Compound 208, (2-Cyclohexylquinazolino-4-yl)-[2-(3-fluorophenyl)-ethyl]-amine]: 2.0.
`COc1cccc(CNc2nc(-c3ccncc3)nc3ccccc23)c1` [Compound 248, (3-Methoxybenzyl)-(2-pyridino-4-ylquinazolino-4-yl)-amine] showed a Glucose absorption of 1.4.
Molecule `c1ccc(-c2nc(NCc3cccs3)c3ccccc3n2)cc1` [Compound 59] gave a Glucose absorption of 1.2.
The molecule `FC(F)(F)c1cccc(CCNc2nc(-c3ccccc3)nc3ccccc23)c1` [Compound 64, (2-Phenylquinazolino-4-yl)-[2-(3-trifluoromethyl-phenyl)-ethyl]-amine] showed a Glucose absorption of 1.2.
The figure for `COc1cccc(CNc2nc(Cc3ccccc3)nc3ccccc23)c1` [Compound 212, (2-Benzylquinazolino-4-yl)-(3-methoxybenzyl)-amine] is 2.0.

The values above are taken from patent US20080207614A1, “QUINAZOLINE DERIVATIVES FOR THE TREATMENT AND PREVENTION OF DIABETES AND OBESITY” (SK CHEMICALS CO., LTD., priority 2004, published 2008).
